This note sets out measurements from patent US5952330A, “Use of NK-1 receptor antagonists for treating mania” (Merck Sharp & Dohme Ltd., priority 1997, dated 1999).

Where only a bound is given, the exact number is not on record here.

For this test, the system named is cisplatin-induced emesis in ferrets. Description: Ferret emesis, cisplatin-induced retches and vomits (Assay 3). It is filed as in vivo. The conditions noted are these: Mustela putorius; p.o., cisplatin 10 mg/kg i.v. 60 minutes after oral dosing; 4 h observation; read-out: ferret emesis: ID90. The protocol:
ASSAY 3: Ferret Emesis Individually housed male ferrets (1.0-2.5 kg) are dosed orally by gavage with test compound. Ten minutes later they are fed with approximately 10 g of tinned cat food. At 60 minutes following oral dosing, cisplatin (10 mg/kg) is given i.v. via a jugular vein catheter inserted under a brief period of halothane anaesthesia. The catheter is then removed, the jugular vein ligated and the skin incision closed. The ferrets recover rapidly from the anaesthetic and are mobile within 10-20 minutes. The animals are observed continuously during recovery from the anaesthetic and for 4 hours following the cisplatin injection. The numbers of retches and vomits occurring during the 4 hours after cisplatin administration are recorded by trained observers.

For `C[C@@H](O[C@H]1OCCN(Cc2n[nH]c(=O)[nH]2)[C@H]1c1ccc(F)cc1)c1cc(C(F)(F)F)cc(C(F)(F)F)c1` [2-(R)-(1-(R)-(3,5-bis(trifluoromethyl)phenyl)ethoxy)-3-(S)-(4-fluorophenyl)-4-(3-(5-oxo-1H, 4H-1,2,4-triazolo)methyl)-morpholine], the ED90 was < 3 mg/kg.
